For assay [1], the system named is T-Rex 293 cell line SC3 cells having increased expression of androgen receptor protein due to exposure to doxycycline. The assay is described as follows: Cellular growth inhibition, T-Rex 293 SC3 cells with doxycycline (androgen receptor induced), CellTiter-Glo. Particulars: 72 h, T-Rex 293 SC3 cells with 10 ng/mL doxycycline (increased androgen receptor expression). It is filed as cell-based. On the procedure: (§1) The following types of cells were prepared for this experiment: (i) a T-Rex 293 cell line having increased expression of androgen receptor protein due to exposure to doxycycline and (ii) a T-Rex 293 cell line lacking increased expression of androgen receptor protein. Ability of the test compounds to inhibit proliferation of the foregoing cell types was evaluated according to the procedures set forth below.
(§2) The doxycycline-inducible androgen receptor protein expressing cell line was established using the following protocol: T-Rex 293 cells were purchased from Invitrogen (Cat #R71007) and transfected using Lipofectamine 2000 with the wild-type androgen receptor protein sequence cloned into the pcDNA4/TO vector. Transfected cells were selected using 400 μg/mL Zeocin (Invitrogen Cat #R25001). Following selection, single clones were raised and maintained in Dulbecco's Modified Eagle Medium (DMEM) supplemented with 10% w/w Tetracycline-free fetal bovine serum (FBS) and 250 μg/mL Zeocin. Clones were analyzed for expression of androgen receptor protein in the presence and absence of 10 ng/mL doxycycline (Sigma Cat #D9891), and a single doxycycline-inducible clone (hereinafter “SC3”) was selected for use in downstream assays.
(§3) The SC3 cells were seeded on poly-D-lysine coated, black clear-bottom 384-well plates at 2500/well, in 25 μL Phenol Red Free Dulbecco's Modified Eagle Medium (DMEM) supplemented with 10% w/w charcoal-dextran treated fetal bovine serum (FBS) and 1% w/w pen-strep, with or without 10 ng/mL doxycycline. Pen-Strep is a commercially available mixture of penicillin G and streptomycin, which is used in mammalian cell culture media to prevent bacterial contamination. Phenol Red Free Dulbecco's Modified Eagle Medium (DMEM) supplemented with 10% w/w charcoal-dextran treated fetal bovine serum (FBS) and 1% w/w pen-strep, with or without 10 ng/mL doxycycline is herein referred to as Treatment Medium. Following seeding of cells in the plates, the plates were spun at 300×g for 30 seconds, then equilibrated to room temperature for 30 minutes, and then deposited in a humidified tissue culture incubator maintained at 37° C. with 5% CO2.
(§4) At 24 hours after seeding of the cells, dilutions of test compound were prepared in DMSO and dissolved in Treatment Medium, to achieve a final DMSO concentration of 0.5% w/w, thereby providing the Test Compound Solution. A 25 μL aliquot of the Test Compound Solution was added to cells in the well plates. An equal volume of a solution containing DMSO and Treatment Medium was used as a negative control. Following treatment of cells with Test Compound Solution or said equal volume of a solution containing DMSO and Treatment Medium, the plates were spun at 300×g for 30 seconds, and then left in an incubator for 72 hours. At the end of the treatment duration, cell viability was quantified with CellTiter-Glo 2.0 reagent (Promega Cat #G9243). For this purpose, plates were equilibrated to room temperature for 30 minutes, and then 25 μL of CellTiter-Glo 2.0 reagent was added to cells in the plate wells. Plates were then agitated on a shaker for two minutes at 500 rpm and subsequently incubated at room temperature for 10 minutes. Following incubation, the plates were spun at 3000×g for 30 seconds, then sealed with an optical adhesive cover, and luminescence readings were measured with an EnVision Plate Reader. Data was normalized using zero luminescence for baseline. A four-parameter non-linear regression curve fit was applied to dose-response data in GraphPad Prism data analysis software to determine the half-maximal growth inhibitory concentration (GI50) for each test compound.
(ATP-based viability assays read luminescence as a measure of living cells.)

The subject of the next assay is T47D cells. The assay is described as follows: Cellular growth inhibition assay for T47D cells, CellTiter-Glo. The class given is cell-based, human. Conditions: Homo sapiens, T47D, 72 h, 72 hours treatment, CellTiter-Glo 2.0 cell viability. Put shortly: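 Cells are plated at 3000/well and allowed 24 h before treatment. Test compound in medium containing 0.5% DMSO is then added, with DMSO-only wells as negative control, and plates are incubated 72 h at 37 °C. ATP luminescence (CellTiter-Glo 2.0) is then fitted to four parameters to derive GI50.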

The next assay relates to VCaP cells. The assay is described as follows: Cellular growth inhibition assay for VCaP cells, CellTiter-Glo. The class given is cell-based, human. Particulars: Homo sapiens, VCaP, 72 h, 72 hours treatment, CellTiter-Glo 2.0. Put shortly: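 GI50 values come from four-parameter curve fits of luminescence data normalized to a zero baseline. Compound, in medium with 0.5% DMSO, was added one day after plating and left for 72 h before CellTiter-Glo 2.0 addition.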

The subject of assay [2] is T-Rex 293 cell line SC3 cells lacking increased expression of androgen receptor protein. The assay is described as follows: Cellular growth inhibition, T-Rex 293 SC3 cells without doxycycline, CellTiter-Glo. It is filed as cell-based. Particulars: 72 h, T-Rex 293 SC3 cells not exposed to doxycycline, CellTiter-Glo 2.0. As for the experimental part: as §1, §2, §3, §4

One may read the GI50 as the concentration at which growth is held to half of that of the control. A low value points to greater sensitivity of the cells.

With `Cc1sc2c(c1C)C(c1ccc(Cl)cc1)=N[C@@H](CC(=O)NCCCOC1CCN(c3ncc(C(=O)N[C@H]4C(C)(C)[C@H](Oc5ccc(C#N)c(Cl)c5)C4(C)C)cn3)CC1)c1nnc(C)n1-2` [Compound I-20], the 50% growth inhibitory concentration (GI50) was below 500 nM in assay [1], 500 to 1500 nM in the assay on T47D cells, 500 to 1500 nM in the assay on VCaP cells and 500 to 1500 nM in assay [2].
For the molecule `Cc1sc2c(c1C)C(c1ccc(OC[C@@H]3CCCN(c4ncc(C(=O)N[C@H]5C(C)(C)[C@H](Oc6ccc(C#N)c(Cl)c6)C5(C)C)cn4)C3)cc1)=N[C@@H](Cc1ncco1)c1nnc(C)n1-2` [Compound I-254], the concentration for 50% growth inhibition (GI50) (in assay [1]; in the assay with T47D cells; with VCaP cells; in assay [2]) was below 500 nM throughout.
For the molecule `Cc1sc2c(c1C)C(c1ccc(CCOC3CCN(c4ncc(C(=O)N[C@H]5C(C)(C)[C@H](Oc6ccc(C#N)c(Cl)c6)C5(C)C)cn4)CC3)cc1)=NC(Cc1ncco1)c1nnc(C)n1-2` (stereo partly drawn) [Compound I-140], the GI50 (in assay [1]; with T47D cells; with VCaP cells; in assay [2]) was below 500 nM each time.
Turning to `CCNC(=O)C[C@@H]1N=C(c2ccc(OCCOCCOC3CCN(c4ncc(C(=O)N[C@H]5C(C)(C)[C@H](Oc6ccc(C#N)c(Cl)c6)C5(C)C)cn4)CC3)c(F)c2)c2c(sc(C)c2C)-n2c(C)nnc21` [Compound I-78], the GI50 in assay [1] was below 500 nM; in the assay with VCaP cells it was 1500 to 3000 nM; in assay [2] it was 1500 to 3000 nM.
`Cc1sc2c(c1C)C(c1ccc(N3CCO[C@@H](CNc4ncc(C(=O)N[C@H]5C(C)(C)[C@H](Oc6ccc(C#N)c(Cl)c6)C5(C)C)cn4)C3)cc1)=NC(Cc1ncco1)c1nnc(C)n1-2` (stereo partly drawn) [Compound I-669]: the GI50 (in assay [1]; with VCaP cells; in assay [2]) was below 500 nM in each case.
In the case of `CCNC(=O)C[C@@H]1N=C(c2ccc(CCCCOC3CCN(c4ncc(C(=O)N[C@H]5C(C)(C)[C@H](Oc6ccc(C#N)c(Cl)c6)C5(C)C)cn4)CC3)cc2)c2c(sc(C)c2C)-n2c(C)nnc21` [Compound I-91], the GI50 was below 500 nM in assay [1], 500 to 1500 nM in the assay with VCaP cells and 500 to 1500 nM in assay [2].
For the molecule `CCNC(=O)C[C@@H]1N=C(c2ccc(CCCCCCCOC3CCN(c4ncc(C(=O)N[C@H]5C(C)(C)[C@H](Oc6ccc(C#N)c(Cl)c6)C5(C)C)cn4)CC3)cc2)c2c(sc(C)c2C)-n2c(C)nnc21` [Compound I-92], the GI50 in assay [1] was below 500 nM; in the assay on VCaP cells, below 500 nM; in assay [2] it was above 3000 nM.
Regarding `CCNC(=O)C[C@@H]1N=C(c2ccc(OCCCCOC3CCN(c4ncc(C(=O)NC5C(C)(C)C(Oc6ccc(C#N)c(Cl)c6)C5(C)C)cn4)CC3)cc2)c2c(sc(C)c2C)-n2c(C)nnc21` (stereo partly drawn) [Compound I-64], the GI50 (in assay [1]; in the assay on VCaP cells; in assay [2]) was below 500 nM throughout.
Turning to `Cc1sc2c(c1C)C(c1ccc(-c3cn(C4CCN(c5ncc(C(=O)N[C@H]6C(C)(C)[C@H](Oc7ccc(C#N)c(Cl)c7)C6(C)C)cn5)CC4)cn3)cc1)=N[C@@H](Cc1ncco1)c1nnc(C)n1-2` [Compound I-484], the GI50 in assay [1] was below 500 nM; in the assay with VCaP cells, 500 to 1500 nM; in assay [2], 500 to 1500 nM.
As to `CCNC(=O)C[C@@H]1N=C(c2ccc(OCCOCCOC3CCN(c4ncc(C(=O)N[C@H]5C(C)(C)[C@H](Oc6ccc(C#N)c(Cl)c6)C5(C)C)cn4)CC3)c(F)c2F)c2c(sc(C)c2C)-n2c(C)nnc21` [Compound I-74], the GI50 in assay [1] is below 500 nM; in the assay on VCaP cells it was below 500 nM; in assay [2], 500 to 1500 nM.
Regarding `CCNC(=O)C[C@@H]1N=C(c2ccc(OCCCCCCOC3CCN(c4ncc(C(=O)N[C@H]5C(C)(C)[C@H](Oc6ccc(C#N)c(Cl)c6)C5(C)C)cn4)CC3)cc2)c2c(sc(C)c2C)-n2c(C)nnc21` [Compound I-63], the values for the GI50 (in assay [1]; in the assay with VCaP cells; in assay [2]) were below 500 nM, 1500 to 3000 nM and 500 to 1500 nM, respectively.
The matching figures for `CCNC(=O)C[C@@H]1N=C(c2ccc(OCCCOC3CCN(c4ncc(C(=O)N[C@H]5C(C)(C)[C@H](Oc6ccc(C#N)c(Cl)c6)C5(C)C)cn4)CC3)cc2)c2c(sc(C)c2C)-n2c(C)nnc21` [Compound I-62]: below 500 nM, below 500 nM and below 500 nM.
On to `Cc1sc2c(c1C)C(c1ccc(-c3cn(C4CCN(c5ncc(C(=O)N[C@H]6C(C)(C)[C@H](Oc7ccc(C#N)c(Cl)c7)C6(C)C)cn5)CC4)nn3)cc1)=NC(Cc1ncco1)c1nnc(C)n1-2` (stereo partly drawn) [Compound I-483], for which the GI50 (in assay [1]; in the assay with VCaP cells; in assay [2]) was below 500 nM throughout.
`Cc1sc2c(c1C)C(c1ccc(N3CCCN(CCCNc4ncc(C(=O)N[C@H]5C(C)(C)[C@H](Oc6ccc(C#N)c(Cl)c6)C5(C)C)cn4)CC3)cc1)=N[C@@H](Cc1ncco1)c1nnc(C)n1-2` [Compound I-666]: the results for the 50% growth inhibitory concentration (GI50) (in assay [1]; in the assay with VCaP cells; in assay [2]) were below 500 nM, below 500 nM and 1500 to 3000 nM, respectively.
In the case of `Cc1sc2c(c1C)C(c1ccc(Cl)cc1)=N[C@@H](CC(=O)NCCCCN1CCN(CC3CCN(c4ncc(C(=O)N[C@H]5C(C)(C)[C@H](Oc6ccc(C#N)c(Cl)c6)C5(C)C)cn4)CC3)CC1)c1nnc(C)n1-2` [Compound I-37, N-((1r,3r)-3-(3-chloro-4-cyanophenoxy)-2,2,4,4-tetramethylcyclobutyl)-2-(4-((4-(4-(2-((S)-4-(4-chlorophenyl)-2,3,9-trimethyl-6H-thieno[3,2-f][1,2,4]triazolo[4,3-a][1,4]diazepin-6-yl)acetamido)butyl)piperazin-1-yl)methyl)piperidin-1-yl)pyrimidine-5-carboxamide], the results for the GI50 (in assay [1]; with VCaP cells; in assay [2]) were below 500 nM, below 500 nM and 500 to 1500 nM, respectively.
As for `Cc1sc2c(c1C)C(c1ccc(Cl)cc1)=N[C@@H](CC(=O)NCCCOCCOC1CCN(c3ncc(C(=O)N[C@H]4C(C)(C)[C@H](Oc5ccc(C#N)c(Cl)c5)C4(C)C)cn3)CC1)c1nnc(C)n1-2` [Compound I-26], the figures for the GI50 (in assay [1]; in the assay with VCaP cells; in assay [2]) were below 500 nM, below 500 nM and 500 to 1500 nM, respectively.
In the case of `Cc1sc2c(c1C)C(c1ccc(-c3cc(C4CCN(c5ncc(C(=O)N[C@H]6C(C)(C)[C@H](Oc7ccc(C#N)c(Cl)c7)C6(C)C)cn5)CC4)no3)cc1)=NC(Cc1ncco1)c1nnc(C)n1-2` (stereo partly drawn) [Compound I-482], the concentration for 50% growth inhibition (GI50) (in assay [1]; in the assay on VCaP cells; in assay [2]) was below 500 nM each time.
`Cc1sc2c(c1C)C(c1ccc(CC3CC(C4CCCN(c5ncc(C(=O)N[C@H]6C(C)(C)[C@H](Oc7ccc(C#N)c(Cl)c7)C6(C)C)cn5)C4)C3)cc1)=N[C@@H](C)c1nnc(C)n1-2` (stereo partly drawn) [Compound I-463]: the 50% growth inhibitory concentration (GI50) in assay [1] is below 500 nM; in the assay on VCaP cells it was below 500 nM; in assay [2], above 3000 nM.
`Cc1sc2c(c1C)C(c1ccc(N3CCN(c4ncc(C(=O)N[C@H]5C(C)(C)[C@H](Oc6ccc(C#N)c(Cl)c6)C5(C)C)cn4)CC(F)(F)C3)cc1)=NC(Cc1ncco1)c1nnc(C)n1-2` (stereo partly drawn) [Compound I-670]: the concentration for 50% growth inhibition (GI50) in assay [1] is below 500 nM; in the assay on VCaP cells, below 500 nM; in assay [2], above 3000 nM.

These data come from patent US20260062422A1 (Halda Therapeutics OpCo, Inc., priority 2022, published 2026).
